# Laboratory results published in the NIST ThermoML archive (doi:10.1016/j.tca.2008.10.023).
# Several values for one entry are separate records, joined by “and”; a condition that tells them apart may be missing. Equal values may be shown once. Numbers after ± are expanded uncertainties.
# Assay: cn = amount concentration of the nth substance listed, in mol/dm3
# Details: 101 kPa, Liquid, c1 = 2; for speed of sound: Linear variable-path acoustic interferometer; for mass density: Pycnometric method
SMILES,speed of sound (298.15 K) [m/s],mass density (298.15 K) [kg/m3],speed of sound (303.15 K) [m/s],mass density (303.15 K) [kg/m3],speed of sound (308.15 K),mass density (308.15 K) [kg/m3],speed of sound (313.15 K) [m/s],mass density (313.15 K) [kg/m3],speed of sound (318.15 K),mass density (318.15 K) [kg/m3],speed of sound (323.15 K),mass density (323.15 K) [kg/m3]
[Cl-].[K+] [potassium chloride] + O,1595.2 ± 1.8,1089.1 ± 0.4,1605.9 ± 1.8,1087.5 ± 0.4,1610.2 ± 1.8 m/s,1085.6 ± 0.4,1616.4 ± 1.8,1083.4 ± 0.4,1621.4 ± 1.8 m/s,1080.9 ± 0.4,1626.5 ± 1.8 m/s,1078.3 ± 0.5
O=[N+]([O-])[O-].[K+] [potassium nitrate] + O,1562 ± 1.7,1122.9 ± 0.4,1569.4 ± 1.8,1120.6 ± 0.4,1575.8 ± 1.8 m/s and 1575 ± 1.8 m/s,1118 ± 0.4,1580 ± 1.8,1115 ± 0.4,1584.6 ± 1.8 m/s and 1584.5 ± 1.8 m/s,1111.8 ± 0.5,1588.9 ± 1.8 m/s and 1588.8 ± 1.8 m/s,1108.2 ± 0.5
